Assay results as given in ChEMBL document CHEMBL4507284, “Data for DCP probe BI-1230” (2021).

What was measured:
[1] = tested on: Tyrosine-protein kinase ABL1 (Homo sapiens), P00519 [F317I]; details: Compound concentration 1000.0 nM
[2] = tested on: Tyrosine-protein kinase ABL1 (Homo sapiens), P00519 [F317L]; details: Compound concentration 1000.0 nM
[3] = tested on: Tyrosine-protein kinase ABL1 (Homo sapiens), P00519 [H396P]; details: Compound concentration 1000.0 nM
[4] = biological target: Activin receptor type-2A (Homo sapiens) (UniProt P27037); details: Compound concentration 1000.0 nM
Activin receptor type-2A (Homo sapiens), sequence (P27037 whole entry): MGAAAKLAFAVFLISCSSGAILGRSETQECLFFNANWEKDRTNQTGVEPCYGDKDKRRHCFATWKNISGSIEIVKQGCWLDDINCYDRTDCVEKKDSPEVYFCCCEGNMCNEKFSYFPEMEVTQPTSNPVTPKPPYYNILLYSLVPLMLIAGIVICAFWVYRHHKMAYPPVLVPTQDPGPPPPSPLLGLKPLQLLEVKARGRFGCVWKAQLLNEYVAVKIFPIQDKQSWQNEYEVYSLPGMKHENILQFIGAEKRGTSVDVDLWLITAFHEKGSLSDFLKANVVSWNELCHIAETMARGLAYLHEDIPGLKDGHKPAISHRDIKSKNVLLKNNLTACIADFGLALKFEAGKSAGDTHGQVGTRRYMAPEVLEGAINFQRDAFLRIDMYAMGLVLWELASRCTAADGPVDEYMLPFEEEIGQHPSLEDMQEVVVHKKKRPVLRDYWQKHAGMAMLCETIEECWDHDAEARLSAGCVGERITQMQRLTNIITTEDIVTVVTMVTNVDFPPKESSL

[5] = biological target: Cyclin-dependent kinase 2 (Homo sapiens) (UniProt P24941); details: Compound concentration 1000.0 nM
[6] = biological target: Dual specificity protein kinase CLK1 (Homo sapiens) (UniProt P49759); details: Compound concentration 1000.0 nM
[7] = biological target: Macrophage colony-stimulating factor 1 receptor (Homo sapiens) (UniProt P07333); details: Compound concentration 1000.0 nM
[8] = biological target: Casein kinase I isoform gamma-3 (Homo sapiens) (UniProt Q9Y6M4); details: Compound concentration 1000.0 nM
[9] = biological target: Casein kinase II subunit alpha (Homo sapiens) (UniProt P68400); details: Compound concentration 1000.0 nM
[10] = biological target: Dual specificity tyrosine-phosphorylation-regulated kinase 1B (Homo sapiens) (UniProt Q9Y463); details: Compound concentration 1000.0 nM
[11] = tested on: Epidermal growth factor receptor (Homo sapiens), P00533 [UNDEFINED MUTATION]; details: Compound concentration 1000.0 nM
[12] = tested on: Epidermal growth factor receptor (Homo sapiens), P00533 [G719C]; details: Compound concentration 1000.0 nM
[13] = biological target: Ephrin type-A receptor 3 (Homo sapiens) (UniProt P29320); details: Compound concentration 1000.0 nM
[14] = biological target: Ephrin type-B receptor 1 (Homo sapiens) (UniProt P54762); details: Compound concentration 1000.0 nM
[15] = biological target: Ephrin type-B receptor 3 (Homo sapiens) (UniProt P54753); details: Compound concentration 1000.0 nM
[16] = tested on: eIF-2-alpha kinase GCN2 (Homo sapiens), Q9P2K8 [S808G]; details: Compound concentration 1000.0 nM
eIF-2-alpha kinase GCN2 (Homo sapiens), Q9P2K8 [S808G], sequence (Q9P2K8 whole entry S808G): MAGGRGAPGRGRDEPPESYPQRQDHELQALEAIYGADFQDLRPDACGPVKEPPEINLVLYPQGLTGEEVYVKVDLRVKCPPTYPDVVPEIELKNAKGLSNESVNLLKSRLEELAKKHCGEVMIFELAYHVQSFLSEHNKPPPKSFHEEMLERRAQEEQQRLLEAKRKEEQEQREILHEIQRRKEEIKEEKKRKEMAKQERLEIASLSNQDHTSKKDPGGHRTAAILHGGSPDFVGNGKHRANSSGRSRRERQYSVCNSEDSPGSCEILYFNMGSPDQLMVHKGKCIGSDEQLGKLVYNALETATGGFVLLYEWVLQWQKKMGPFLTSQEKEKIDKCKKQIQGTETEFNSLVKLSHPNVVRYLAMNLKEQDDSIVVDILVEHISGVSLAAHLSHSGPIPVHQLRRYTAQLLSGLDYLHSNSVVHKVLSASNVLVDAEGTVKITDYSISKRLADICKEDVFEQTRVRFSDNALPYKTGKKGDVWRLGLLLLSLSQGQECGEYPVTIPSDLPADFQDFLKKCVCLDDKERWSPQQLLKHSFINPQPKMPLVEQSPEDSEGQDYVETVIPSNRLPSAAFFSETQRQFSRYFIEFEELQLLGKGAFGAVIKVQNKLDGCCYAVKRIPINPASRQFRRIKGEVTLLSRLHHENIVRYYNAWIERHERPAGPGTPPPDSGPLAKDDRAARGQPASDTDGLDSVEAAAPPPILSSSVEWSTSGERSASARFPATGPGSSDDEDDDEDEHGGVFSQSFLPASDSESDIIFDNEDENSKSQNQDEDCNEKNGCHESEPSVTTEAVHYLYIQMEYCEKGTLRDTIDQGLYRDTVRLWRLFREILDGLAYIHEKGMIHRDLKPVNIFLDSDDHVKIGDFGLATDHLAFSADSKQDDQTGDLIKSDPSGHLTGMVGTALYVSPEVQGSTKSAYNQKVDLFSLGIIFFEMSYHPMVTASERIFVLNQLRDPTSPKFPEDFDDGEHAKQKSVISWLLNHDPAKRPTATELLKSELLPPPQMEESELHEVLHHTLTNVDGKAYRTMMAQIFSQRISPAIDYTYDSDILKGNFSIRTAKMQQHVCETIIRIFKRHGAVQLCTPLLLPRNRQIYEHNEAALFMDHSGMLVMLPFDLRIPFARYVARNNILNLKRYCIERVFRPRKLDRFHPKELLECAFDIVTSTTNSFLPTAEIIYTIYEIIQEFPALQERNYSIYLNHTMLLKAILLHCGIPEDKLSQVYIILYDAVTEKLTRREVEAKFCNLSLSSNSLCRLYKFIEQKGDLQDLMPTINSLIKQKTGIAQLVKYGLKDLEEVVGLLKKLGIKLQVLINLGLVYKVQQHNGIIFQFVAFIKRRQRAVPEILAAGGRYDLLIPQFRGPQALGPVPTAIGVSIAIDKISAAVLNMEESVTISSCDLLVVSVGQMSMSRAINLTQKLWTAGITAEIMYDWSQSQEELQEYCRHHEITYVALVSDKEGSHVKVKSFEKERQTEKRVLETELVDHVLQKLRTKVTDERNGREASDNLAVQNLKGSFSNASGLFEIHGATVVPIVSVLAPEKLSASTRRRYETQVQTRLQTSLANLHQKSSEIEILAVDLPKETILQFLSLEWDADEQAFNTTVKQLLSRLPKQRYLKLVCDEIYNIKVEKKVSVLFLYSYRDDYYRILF

[17] = biological target: Homeodomain-interacting protein kinase 3 (Homo sapiens) (UniProt Q9H422); details: Compound concentration 1000.0 nM
[18] = biological target: Hormonally up-regulated neu tumor-associated kinase (Homo sapiens) (UniProt P57058); details: Compound concentration 1000.0 nM
Hormonally up-regulated neu tumor-associated kinase (Homo sapiens), sequence (P57058 whole entry): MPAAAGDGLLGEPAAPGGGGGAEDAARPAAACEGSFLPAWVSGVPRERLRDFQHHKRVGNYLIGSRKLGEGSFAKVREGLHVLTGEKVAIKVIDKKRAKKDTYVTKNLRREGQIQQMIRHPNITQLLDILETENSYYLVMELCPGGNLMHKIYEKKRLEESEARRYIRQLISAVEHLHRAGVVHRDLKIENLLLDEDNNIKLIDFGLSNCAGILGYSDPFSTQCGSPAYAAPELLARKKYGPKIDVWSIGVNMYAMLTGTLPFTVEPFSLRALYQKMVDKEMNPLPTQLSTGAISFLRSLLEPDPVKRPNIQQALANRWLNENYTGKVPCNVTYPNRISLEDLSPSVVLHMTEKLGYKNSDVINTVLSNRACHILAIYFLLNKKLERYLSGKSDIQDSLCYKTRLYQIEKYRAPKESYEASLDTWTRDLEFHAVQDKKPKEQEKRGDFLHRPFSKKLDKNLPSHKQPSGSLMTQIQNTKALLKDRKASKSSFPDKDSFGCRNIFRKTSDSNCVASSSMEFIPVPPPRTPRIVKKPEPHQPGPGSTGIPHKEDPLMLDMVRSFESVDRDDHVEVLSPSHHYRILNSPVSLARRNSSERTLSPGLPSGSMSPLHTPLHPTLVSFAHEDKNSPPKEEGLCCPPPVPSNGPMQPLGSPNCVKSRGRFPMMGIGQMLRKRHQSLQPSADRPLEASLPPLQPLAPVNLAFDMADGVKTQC

[19] = biological target: Insulin receptor-related protein (Homo sapiens) (UniProt P14616); details: Compound concentration 1000.0 nM
[20] = biological target: Tyrosine-protein kinase JAK2 (Homo sapiens) (UniProt O60674); details: Compound concentration 1000.0 nM
[21] = tested on: Mast/stem cell growth factor receptor Kit (Homo sapiens), P10721 [D816H]; details: Compound concentration 1000.0 nM
[22] = tested on: Mast/stem cell growth factor receptor Kit (Homo sapiens), P10721 [D816V]; details: Compound concentration 1000.0 nM
[23] = biological target: Serine/threonine-protein kinase 10 (Homo sapiens) (UniProt O94804); details: Compound concentration 1000.0 nM
[24] = biological target: Microtubule-associated serine/threonine-protein kinase 1 (Homo sapiens) (UniProt Q9Y2H9); details: Compound concentration 1000.0 nM
[25] = biological target: MAP kinase-interacting serine/threonine-protein kinase 1 (Homo sapiens) (UniProt Q9BUB5); details: Compound concentration 1000.0 nM
[26] = biological target: Serine/threonine-protein kinase MRCK beta (Homo sapiens) (UniProt Q9Y5S2); details: Compound concentration 1000.0 nM
[27] = biological target: Serine/threonine-protein kinase 4 (Homo sapiens) (UniProt Q13043); details: Compound concentration 1000.0 nM
[28] = biological target: Serine/threonine-protein kinase Nek1 (Homo sapiens) (UniProt Q96PY6); details: Compound concentration 1000.0 nM
[29] = biological target: Serine/threonine-protein kinase Nek11 (Homo sapiens) (UniProt Q8NG66); details: Compound concentration 1000.0 nM
[30] = biological target: Mitogen-activated protein kinase 13 (Homo sapiens) (UniProt O15264); details: Compound concentration 1000.0 nM
[31] = biological target: Cyclin-dependent kinase 14 (Homo sapiens) (UniProt O94921); details: Compound concentration 1000.0 nM
[32] = biological target: Phosphatidylinositol 4,5-bisphosphate 3-kinase catalytic subunit gamma isoform (Homo sapiens) (UniProt P48736); details: Compound concentration 1000.0 nM
[33] = biological target: Phosphatidylinositol 4-kinase beta (Homo sapiens) (UniProt Q9UBF8); details: Compound concentration 1000.0 nM
Phosphatidylinositol 4-kinase beta (Homo sapiens), sequence (Q9UBF8 2-816 limits assumed): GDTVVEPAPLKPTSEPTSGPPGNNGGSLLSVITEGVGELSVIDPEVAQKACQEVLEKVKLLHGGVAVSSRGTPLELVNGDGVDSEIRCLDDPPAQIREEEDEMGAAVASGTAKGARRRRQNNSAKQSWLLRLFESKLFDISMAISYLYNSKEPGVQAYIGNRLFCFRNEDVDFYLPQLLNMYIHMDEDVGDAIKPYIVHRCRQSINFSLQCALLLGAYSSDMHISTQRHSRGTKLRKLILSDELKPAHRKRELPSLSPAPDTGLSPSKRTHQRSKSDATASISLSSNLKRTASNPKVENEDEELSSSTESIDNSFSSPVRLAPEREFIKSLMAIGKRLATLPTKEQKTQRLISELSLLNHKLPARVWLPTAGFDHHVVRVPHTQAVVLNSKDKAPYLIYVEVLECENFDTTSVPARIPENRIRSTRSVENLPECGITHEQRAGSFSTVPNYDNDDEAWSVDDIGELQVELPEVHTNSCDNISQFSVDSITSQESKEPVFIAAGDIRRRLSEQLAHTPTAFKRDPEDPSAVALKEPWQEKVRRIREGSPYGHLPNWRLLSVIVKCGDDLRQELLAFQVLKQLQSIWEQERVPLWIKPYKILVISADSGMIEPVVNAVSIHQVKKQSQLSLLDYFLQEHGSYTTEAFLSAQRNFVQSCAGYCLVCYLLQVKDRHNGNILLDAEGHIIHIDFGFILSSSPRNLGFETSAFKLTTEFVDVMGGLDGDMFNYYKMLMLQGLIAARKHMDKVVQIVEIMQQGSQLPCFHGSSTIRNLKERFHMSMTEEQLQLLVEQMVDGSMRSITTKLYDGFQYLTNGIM

[34] = biological target: Serine/threonine-protein kinase pim-3 (Homo sapiens) (UniProt Q86V86); details: Compound concentration 1000.0 nM
[35] = biological target: Phosphatidylinositol 4-phosphate 5-kinase type-1 gamma (Homo sapiens) (UniProt O60331); details: Compound concentration 1000.0 nM
[36] = biological target: cAMP-dependent protein kinase catalytic subunit alpha (Homo sapiens) (UniProt P17612); details: Compound concentration 1000.0 nM
[37] = biological target: Serine/threonine-protein kinase D1 (Homo sapiens) (UniProt Q15139); details: Compound concentration 1000.0 nM
Serine/threonine-protein kinase D1 (Homo sapiens), sequence (Q15139 whole entry): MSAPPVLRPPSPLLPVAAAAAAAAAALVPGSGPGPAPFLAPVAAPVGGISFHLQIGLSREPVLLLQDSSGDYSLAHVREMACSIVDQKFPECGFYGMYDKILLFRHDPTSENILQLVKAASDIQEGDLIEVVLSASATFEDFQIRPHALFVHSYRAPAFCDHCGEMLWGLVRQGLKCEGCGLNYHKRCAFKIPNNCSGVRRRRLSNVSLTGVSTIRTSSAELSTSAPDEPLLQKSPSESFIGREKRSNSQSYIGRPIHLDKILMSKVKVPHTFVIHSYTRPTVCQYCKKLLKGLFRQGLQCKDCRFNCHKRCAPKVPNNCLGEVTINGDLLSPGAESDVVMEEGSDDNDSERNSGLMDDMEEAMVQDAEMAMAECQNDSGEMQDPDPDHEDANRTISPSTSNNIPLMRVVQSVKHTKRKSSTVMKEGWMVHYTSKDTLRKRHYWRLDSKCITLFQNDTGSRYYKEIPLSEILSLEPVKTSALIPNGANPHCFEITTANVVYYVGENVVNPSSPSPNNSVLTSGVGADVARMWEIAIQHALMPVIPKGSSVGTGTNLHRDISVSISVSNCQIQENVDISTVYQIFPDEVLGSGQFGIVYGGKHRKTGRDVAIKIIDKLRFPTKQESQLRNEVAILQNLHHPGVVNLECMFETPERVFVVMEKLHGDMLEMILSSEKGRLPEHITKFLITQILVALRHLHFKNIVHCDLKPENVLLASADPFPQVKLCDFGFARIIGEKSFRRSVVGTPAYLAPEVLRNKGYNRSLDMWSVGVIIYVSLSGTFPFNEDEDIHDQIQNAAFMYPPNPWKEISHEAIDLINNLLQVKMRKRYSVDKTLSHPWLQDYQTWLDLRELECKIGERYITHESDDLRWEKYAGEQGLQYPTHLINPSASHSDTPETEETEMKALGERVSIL

[38] = biological target: cGMP-dependent protein kinase 2 (Homo sapiens) (UniProt Q13237); details: Compound concentration 1000.0 nM
[39] = biological target: Ribosomal protein S6 kinase alpha-4 (Homo sapiens) (UniProt O75676); details: Compound concentration 1000.0 nM
[40] = biological target: Serine/threonine-protein kinase 33 (Homo sapiens) (UniProt Q9BYT3); details: Compound concentration 1000.0 nM
[41] = biological target: Serine/threonine-protein kinase TAO3 (Homo sapiens) (UniProt Q9H2K8); details: Compound concentration 1000.0 nM
[42] = biological target: Angiopoietin-1 receptor (Homo sapiens) (UniProt Q02763); details: Compound concentration 1000.0 nM
[43] = biological target: Tyrosine-protein kinase receptor TYRO3 (Homo sapiens) (UniProt Q06418); details: Compound concentration 1000.0 nM
[44] = biological target: 5-hydroxytryptamine receptor 5A (Homo sapiens) (UniProt P47898); details: Compound concentration 10.0 uM
[45] = biological target: Delta-type opioid receptor (Homo sapiens) (UniProt P41143); details: Compound concentration 10.0 uM
Delta-type opioid receptor (Homo sapiens), sequence (P41143 whole entry): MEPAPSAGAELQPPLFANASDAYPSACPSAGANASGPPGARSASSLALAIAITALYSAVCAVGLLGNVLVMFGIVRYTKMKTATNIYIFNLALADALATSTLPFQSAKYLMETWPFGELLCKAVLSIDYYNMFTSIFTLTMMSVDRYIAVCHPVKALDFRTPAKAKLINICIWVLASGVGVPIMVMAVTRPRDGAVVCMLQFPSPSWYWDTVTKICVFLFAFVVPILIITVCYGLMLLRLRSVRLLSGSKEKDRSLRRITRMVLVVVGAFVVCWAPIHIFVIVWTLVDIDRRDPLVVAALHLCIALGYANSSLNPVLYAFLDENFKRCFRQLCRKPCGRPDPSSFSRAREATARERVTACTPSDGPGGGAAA

**Q.** Which residual activity [1] does the source give for COc1ccc2c(O[C@@H]3C[C@H]4C(=O)N[C@]5(C(=O)O)CC5/C=C\CCCCC[C@H](NC(=O)OC5CCCC5)C(=O)N4C3)cc(-c3csc(NC(=O)C(C)C)n3)nc2c1C (stereo not given in full) [BI 1230] here?
**A.** 90%

**Q.** What about the residual activity [2] of the same molecule?
**A.** 75%

**Q.** And the residual activity [3]?
**A.** 91%

**Q.** And the residual activity [4]?
**A.** 72%

**Q.** What about the residual activity [5] of the same molecule?
**A.** 99%

**Q.** What about the residual activity [6] of the same molecule?
**A.** 98%

**Q.** What about the residual activity [7] of the same molecule?
**A.** 89%

**Q.** And the residual activity [8]?
**A.** 100%

**Q.** What about the residual activity [9] of the same molecule?
**A.** 81%

**Q.** What about the residual activity [10] of the same molecule?
**A.** 74%

**Q.** What about the residual activity [11] of the same molecule?
**A.** 98%

**Q.** And the residual activity [12]?
**A.** 76%

**Q.** And the residual activity [13]?
**A.** 97%

**Q.** What about the residual activity [14] of the same molecule?
**A.** 100%

**Q.** And the residual activity [15]?
**A.** 100%

**Q.** What about the residual activity [16] of the same molecule?
**A.** 100%

**Q.** And the residual activity [17]?
**A.** 83%

**Q.** What about the residual activity [18] of the same molecule?
**A.** 100%

**Q.** And the residual activity [19]?
**A.** 95%

**Q.** What about the residual activity [20] of the same molecule?
**A.** 64%

**Q.** What about the residual activity [21] of the same molecule?
**A.** 86%

**Q.** And the residual activity [22]?
**A.** 95%

**Q.** And the residual activity [23]?
**A.** 100%

**Q.** What about the residual activity [24] of the same molecule?
**A.** 98%

**Q.** What about the residual activity [25] of the same molecule?
**A.** 79%

**Q.** And the residual activity [26]?
**A.** 96%

**Q.** What about the residual activity [27] of the same molecule?
**A.** 100%

**Q.** What about the residual activity [28] of the same molecule?
**A.** 100%

**Q.** What about the residual activity [29] of the same molecule?
**A.** 84%

**Q.** What about the residual activity [30] of the same molecule?
**A.** 100%

**Q.** What about the residual activity [31] of the same molecule?
**A.** 88%

**Q.** And the residual activity [32]?
**A.** 65%

**Q.** What about the residual activity [33] of the same molecule?
**A.** 71%

**Q.** And the residual activity [34]?
**A.** 94%

**Q.** What about the residual activity [35] of the same molecule?
**A.** 100%

**Q.** And the residual activity [36]?
**A.** 97%

**Q.** What about the residual activity [37] of the same molecule?
**A.** 89%

**Q.** And the residual activity [38]?
**A.** 84%

**Q.** What about the residual activity [39] of the same molecule?
**A.** 96%

**Q.** What about the residual activity [40] of the same molecule?
**A.** 54%

**Q.** What about the residual activity [41] of the same molecule?
**A.** 88%

**Q.** What about the residual activity [42] of the same molecule?
**A.** 100%

**Q.** And the residual activity [43]?
**A.** 100%

**Q.** What about the inhibition [44] of the same molecule?
**A.** 22.1%

**Q.** And the inhibition [45]?
**A.** 45.8%

**Q.** Which residual activity [1] does the source give for O=C(N[C@H]1CCCCC/C=C\C2C[C@@]2(C(=O)O)NC(=O)[C@@H]2C[C@@H](Oc3ccncc3)CN2C1=O)OC1CCCC1 (stereo not given in full) [BI 1675] here?
**A.** 100%

**Q.** What about the residual activity [2] of the same molecule?
**A.** 100%

**Q.** And the residual activity [3]?
**A.** 71%

**Q.** And the residual activity [4]?
**A.** 96%

**Q.** What about the residual activity [5] of the same molecule?
**A.** 87%

**Q.** What about the residual activity [6] of the same molecule?
**A.** 100%

**Q.** What about the residual activity [7] of the same molecule?
**A.** 92%

**Q.** What about the residual activity [8] of the same molecule?
**A.** 100%

**Q.** And the residual activity [9]?
**A.** 83%

**Q.** And the residual activity [10]?
**A.** 46%

**Q.** What about the residual activity [11] of the same molecule?
**A.** 78%

**Q.** And the residual activity [12]?
**A.** 59%

**Q.** And the residual activity [13]?
**A.** 86%

**Q.** And the residual activity [14]?
**A.** 100%

**Q.** What about the residual activity [15] of the same molecule?
**A.** 100%

**Q.** What about the residual activity [16] of the same molecule?
**A.** 100%

**Q.** And the residual activity [17]?
**A.** 100%

**Q.** What about the residual activity [18] of the same molecule?
**A.** 100%

**Q.** What about the residual activity [19] of the same molecule?
**A.** 100%

**Q.** And the residual activity [20]?
**A.** 100%

**Q.** What about the residual activity [21] of the same molecule?
**A.** 100%

**Q.** What about the residual activity [22] of the same molecule?
**A.** 90%

**Q.** What about the residual activity [23] of the same molecule?
**A.** 99%

**Q.** And the residual activity [24]?
**A.** 82%

**Q.** What about the residual activity [25] of the same molecule?
**A.** 79%

**Q.** And the residual activity [26]?
**A.** 100%

**Q.** And the residual activity [27]?
**A.** 100%

**Q.** What about the residual activity [28] of the same molecule?
**A.** 100%

**Q.** What about the residual activity [29] of the same molecule?
**A.** 100%

**Q.** And the residual activity [30]?
**A.** 96%

**Q.** And the residual activity [31]?
**A.** 91%

**Q.** What about the residual activity [32] of the same molecule?
**A.** 78%

**Q.** What about the residual activity [33] of the same molecule?
**A.** 81%

**Q.** What about the residual activity [34] of the same molecule?
**A.** 100%

**Q.** What about the residual activity [35] of the same molecule?
**A.** 100%

**Q.** And the residual activity [36]?
**A.** 92%

**Q.** What about the residual activity [37] of the same molecule?
**A.** 96%

**Q.** What about the residual activity [38] of the same molecule?
**A.** 88%

**Q.** What about the residual activity [39] of the same molecule?
**A.** 100%

**Q.** What about the residual activity [40] of the same molecule?
**A.** 89%

**Q.** And the residual activity [41]?
**A.** 100%

**Q.** And the residual activity [42]?
**A.** 100%

**Q.** What about the residual activity [43] of the same molecule?
**A.** 100%

**Q.** And the inhibition [44]?
**A.** 1.81%

**Q.** What about the inhibition [45] of the same molecule?
**A.** -2.02%
